Results published in publication PMC8728736, “A Reactivity-Based ^18F-Labeled Probe for PET Imaging of Oxidative Stress in Chemotherapy-Induced Cardiotoxicity” (Molecular Pharmaceutics, 2021).
“And” between values parts separate entries of the source, which are not always exact repeats. Equal entries are not always repeated. Blank lines part the entries; values can stand above or below the compound they belong to.

What was measured:
[1] = Lipophilicity, partition between 1-octanol and PBS; type: physicochemical; conditions: 1-octanol/PBS pH 7.4, shake-flask, n = 6
Procedure: The lipophilicity of ^18F-FPBT and ^18F-FPBT-Ox was determined by a conventional partition method between 1-octanol and phosphate buffered saline (PBS), pH 7.4. 1-Octanol was presaturated with PBS before use. The radiotracer (∼2 KBq) was added to a mixture of PBS (200 μL) and 1-octanol (200 μL) in a 1.5 mL Eppendorf vial (n = 6). The mixture was vigorously agitated at rt for 5 min and then centrifuged at 3000 g for 10 min. A 100 μL aliquot from each layer was drawn for measurement in a gamma counter. The LogDoct/PBS was calculated as follows: log [(cpm in the 1-octanol layer – cpm 1-octanol blank)/(cpm in the PBS layer – cpm PBS blank)].

[2] = Serum stability at 37 °C by radio-HPLC; type: in vitro ADME, rat; conditions: serum, 37 °C, up to 30 min
Procedure: ^18F-FPBT (∼3.0 MBq) in 5% ethanol in PBS (200 μL) containing sodium ascorbate (0.01 mg/mL) was incubated with rat serum (200 μL) at 37 °C for 1 min or 1 h. Subsequently, plasma proteins were precipitated from the supernatant with ice-cold acetonitrile (1.5 mL), and samples were centrifuged (3 min, 13 000 rpm). The residual activity in the pellet was <3%. The supernatant (∼2.0 MBq, 1.0 mL) was analyzed by radio-HPLC. HPLC method: ZORBAX column (300SB-C18, semipreparative 9.4 mm × 250 mm, 5 μm) using acetonitrile and water as the mobile phase, at a flow rate of 3.0 mL/min. The following gradient was used: from 50% to 90% acetonitrile in 15 min; kept at 90% acetonitrile for 10 min; from 90 to 50% acetonitrile in 5 min.
^18F-FBPT-Ox (2–4 MBq, 50 μL in 10% EtOH/PBS) was added to serum (500 μL) and incubated at 37 °C for 5, 15, and 30 min, respectively. Plasma proteins were precipitated with a 5-sulfosalicylic acid water solution (10% w/v, 1 mL) and centrifuged (3 min, 13 000 rpm). The supernatant was removed and diluted with 500 μL of DI H2O and analyzed via radio-HPLC. A control experiment was performed where ^18F-FBPT-Ox (2 MBq, 50 μL in 10% EtOH/PBS) was added to 500 μL of PBS, incubated at 37 °C for 30 min. A 5-sulfosalicylic acid water solution (10% w/v, 1 mL) was added, thoroughly mixed, then diluted with 500 μL of DI H2O, and analyzed via radio-HPLC. […]

[3] = Post-mortem biodistribution in healthy rats; type: in vivo, Wistar rats; conditions: iv; for Ex vivo biodistribution, Blood / Ex vivo biodistribution, Bone / Ex vivo biodistribution, Brain / Ex vivo biodistribution, Heart / Ex vivo biodistribution, Kidney / Ex vivo biodistribution, Large Intestine / Ex vivo biodistribution, Liver / Ex vivo biodistribution, Lung / Ex vivo biodistribution, Muscle / Ex vivo biodistribution, Small Intestine / Ex vivo biodistribution, Spleen / Ex vivo biodistribution, Urine: healthy rats, mean ± SD, n = 3
Procedure: Wistar rats (male, 319 ± 20 g) were injected intravenously via the tail vein with either ^18F-FPBT (1.0 ± 0.4 MBq) or ^18F-FPBT-Ox (1.1 ± 0.5 MBq). The animals were sacrificed by cervical dislocation at 1, 5, or 30 min postinjection (n = 3/group). Organs and tissues of interest were harvested and weighed, and the radioactivity was measured in a gamma counter. Organ uptake was calculated as the percentage injected dose per gram of tissue mass (% ID/g). Data are reported as mean ± SD.

[4] = In vivo blood stability of 18F-FPBT-Ox; parameters: species or system Wistar rats; conditions: rats, plasma radio-HPLC with gamma counting, n = 2
Procedure: Wistar rats (male, 320 ± 20 g) were intravenously injected with ^18F-FPBT-Ox (∼15 MBq). The animals were sacrificed by cervical dislocation at 30 min postinjection (n = 2). Blood samples were collected in heparin-coated tubes. After centrifugation (5 min, 13 000 rpm), the plasma (∼1 mL) was separated. Plasma proteins were subsequently precipitated with 5-sulfosalicylic acid water solution (10% w/v, 1.5 mL) and centrifuged (5 min, 13,000 rpm). The supernatant was removed and diluted with 500 μL of DI H2O and analyzed via radio-HPLC. HPLC method: ZORBAX column (300SB-C18, semipreparative 9.4 mm × 250 mm, 5 μm). Solvent A: H2O. Solvent B: MeCN. Flow rate: 3.0 mL/min; 0–5 min, 0% of B; 5–20 min, 0–50% of B; 20–30 min, 50–0% of B. HPLC eluent was collected every minute in 30 vials separately and submitted to gamma counting. The counts per minute in each vial were plotted against the corresponding time point.

[5] = Rat model of doxorubicin-induced cardiotoxicity: body weight and echocardiography; type: in vivo, Wistar rats; conditions: rats
Procedure: (§1) Male Wistar rats (280–300 g) were used in all experiments. Subcutaneous 7 day osmotic pumps (Alzet), containing either doxorubicin (Cambridge Bioscience, 30 mg/kg cumulative dose) or vehicle (sterile 0.9% NaCl), were inserted into rats under 2% isoflurane in 100% oxygen.
In order to assess cardiac function, all rats were subjected to a cardiac ultrasound (Vevo 770TM, VisualSonics) 1 day prior to and on day 6 of osmotic pump implantation. Rats were anesthetized with 2% isoflurane in 100% oxygen and maintained at 37 °C via a homeothermic platform and rectal thermometer. High-resolution parasternal left ventricle (LV) long axis M-mode and B-mode images were obtained using an RMV710B transducer. Images were analyzed offline using Vevo Software to determine LV function. Data are reported as mean ± SD. Statistical analysis was performed using one-way ANOVA with Tukey’s multiple comparisons test.

[6] = Ex vivo heart biomarkers of oxidative stress; type: in vivo, Wistar rats; conditions: hearts harvested after PET imaging, n = 4
Procedure: as §1
Total glutathione concentration was determined by an enzyme recycling method.[21] Lipid peroxidation was evaluated using the lipid peroxidation (MDA) assay kit from Sigma-Aldrich, which measures the colorimetric product that results from the reaction of malondialdehyde (MDA) present in the tissue with thiobarbituric (TBA) acid. Iron content was measured in isolated mitochondria and cytosolic fractions using the iron colorimetric assay kit from BioVision following the manufacture’s protocol.

SMILES: [18F]CCC[n+]1c(-c2ccccc2)sc2ccccc21 [^18F-FPBT-Ox]
LogD [1]: −1.00 ± 0.04 and ~−1
Serum stability (in words) [2]: excellent serum stability
Route of clearance / excretion, in words ([3]; healthy Wistar rats): quickly cleared by the kidneys and excreted through the urine
Uptake by major organs (brain, heart, lung, spleen), in words ([3]; healthy Wistar rats): significantly reduced uptake
Ex vivo biodistribution, Blood ([3]; 1 min): 0.36 ± 0.12 % ID/g
Ex vivo biodistribution, Bone ([3]; 1 min): 0.16 ± 0.14 % ID/g
Ex vivo biodistribution, Brain ([3]; 1 min): 0.23 ±0.19 % ID/g
Ex vivo biodistribution, Heart ([3]; 1 min): 0.39 ± 0.25 % ID/g
Ex vivo biodistribution, Kidney ([3]; 1 min): 4.22 ± 0.20 % ID/g
Ex vivo biodistribution, Large Intestine ([3]; 1 min): 0.12 ± 0.07 % ID/g
Ex vivo biodistribution, Liver ([3]; 1 min): 1.49 ± 0.65 % ID/g
Ex vivo biodistribution, Lung ([3]; 1 min): 0.31 ±0.05 % ID/g
Ex vivo biodistribution, Muscle ([3]; 1 min): 0.06 ± 0.02 % ID/g
Ex vivo biodistribution, Small Intestine ([3]; 1 min): 0.28 ± 0.20 % ID/g
Ex vivo biodistribution, Spleen ([3]; 1 min): 0.26 ± 0.13 % ID/g
Ex vivo biodistribution, Urine ([3]; 1 min): 1.39 ± 1.21 % ID/g
Ex vivo biodistribution, Blood ([3]; 5 min): 0.15 ± 0.08 % ID/g
Ex vivo biodistribution, Bone ([3]; 5 min): 0.09 ± 0.03 % ID/g
Ex vivo biodistribution, Brain ([3]; 5 min): 0.14 ± 0.11 % ID/g
Ex vivo biodistribution, Heart ([3]; 5 min): 0.18 ± 0.06 % ID/g
Ex vivo biodistribution, Kidney ([3]; 5 min): 1.15 ± 0.75 % ID/g
Ex vivo biodistribution, Large Intestine ([3]; 5 min): 0.10 ± 0.04 % ID/g
Ex vivo biodistribution, Liver ([3]; 5 min): 1.17 ± 0.37 % ID/g
Ex vivo biodistribution, Lung ([3]; 5 min): 0.21 ± 0.05 % ID/g
Ex vivo biodistribution, Muscle ([3]; 5 min): 0.05 ± 0.02 % ID/g
Ex vivo biodistribution, Small Intestine ([3]; 5 min): 1.59 ± 1.93 % ID/g
Ex vivo biodistribution, Spleen ([3]; 5 min): 0.11 ± 0.04 % ID/g
Ex vivo biodistribution, Urine ([3]; 5 min): 9.29 ± 3.02 % ID/g
Ex vivo biodistribution, Blood ([3]; 30 min): 0.09 ± 0.04 % ID/g
Ex vivo biodistribution, Bone ([3]; 30 min): 0.12 ± 0.06 % ID/g
Ex vivo biodistribution, Brain ([3]; 30 min): 0.07 ± 0.07 % ID/g
Ex vivo biodistribution, Heart ([3]; 30 min): 0.11 ± 0.06 % ID/g
Ex vivo biodistribution, Kidney ([3]; 30 min): 0.59 ± 0.31 % ID/g
Ex vivo biodistribution, Large Intestine ([3]; 30 min): 0.05 ± 0.04 % ID/g
Ex vivo biodistribution, Liver ([3]; 30 min): 0.90 ± 0.59 % ID/g
Ex vivo biodistribution, Lung ([3]; 30 min): 0.12 ± 0.07 % ID/g
Ex vivo biodistribution, Muscle ([3]; 30 min): 0.03 ± 0.00 % ID/g
Ex vivo biodistribution, Small Intestine ([3]; 30 min): 0.63 ± 0.64 % ID/g
Ex vivo biodistribution, Spleen ([3]; 30 min): 0.07 ± 0.05 % ID/g
Ex vivo biodistribution, Urine ([3]; 30 min): 15.80 ± 12.98 % ID/g
Time stable in blood post IV injection [4]: at least 30 min

Cardiac oxidative stress biomarkers (glutathione, maldonaldehyde, mitochondrial iron, cytosolic iron) compared to saline control group [6]: marginally higher
SMILES: COc1cccc2c1C(=O)c1c(O)c3c(c(O)c1C2=O)C[C@@](O)(C(=O)CO)C[C@@H]3O[C@H]1C[C@H](N)[C@H](O)[C@H](C)O1 [doxorubicin]
Body weight decrease ([5]; doxorubicin 30 mg/kg cumulative dose by 7 day osmotic pump, implantation to day 7, n = 6): 16.2 ± 8.9%
Reduction of left ventricular ejection fraction at day 6 compared to baseline at day 0 ([5]; doxorubicin 30 mg/kg cumulative dose by osmotic pump, echocardiography): 15%
Left ventricular ejection fraction compared to time-matched vehicle controls at day 6 ([5]; echocardiography): cannot detect the statistical difference
